Laboratory results taken from publication PMC9797592, “TJ-M2010-5, a novel CNS drug candidate, attenuates acute cerebral ischemia-reperfusion injury through the MyD88/NF-κB and ERK pathway” (Frontiers in Pharmacology, 2022).
Read-outs that look alike come from different tables or passages of the source.

Experiments:
[1] = tested on: OGD/R-induced SH-SY5Y cells; assay: OGD/R-induced SH-SY5Y cell apoptosis, Annexin V/PI flow cytometry; format: cell-based; conditions: OGD 4 h / R 24 h with TJ-5
Method: The oxygen glucose deprivation/reoxygenation (OGD/R)-induced SH-SY5Y cell model was established to mimic CIRI as previously described ([Dong et al., 2021]). Briefly, SH-SY5Y cells were cultured in glucose-free Dulbecco’s Modified Eagle Medium, and the flasks were placed inside an incubator (1% O2, 94% N2, 5% CO2) for 4 h. OGD cells were then incubated in standard culture conditions with or without TJ-5 for 24 h of reperfusion. OGD 4 h/R 24 h SH-SY5Y cells were harvested, and the Annexin V/PI Apoptosis Kit (Multi- Science Biotech, China) was used to detect apoptosis by flow cytometry.

CIRI mice = assay: RT-qPCR and ELISA of inflammatory factors in the brain of CIRI mice; format: in vivo, C57BL/6 mice; conditions: TJ-5 15 mg/kg i.v. after 1 h ischemia
Method: Total mRNA was extracted from the brain cortex using TRIzol reagent and reverse-transcribed into cDNA using the PrimeScript™ RT reagent kit (Takara, Japan), following the manufacturer’s instructions. RT-qPCR was performed using SYBR Green Real-time PCR Master Mix (Takara, Japan) with the Step One System (Life Technologies). The results were expressed as fold change from the untreated control and analyzed using the 2^−ΔΔCt method. The primers were as follows (5′–3′): MyD88 forward: TTTATCTGCTACTGCCCCAACG, reverse: GCGGCGACACCTTTTCTCA; TLR4 forward: ATGCTGCAACTGATGTTCCTTC, reverse: GATGTTAGACCTTTCTTCCTCCC; GAPDH forward: TGTTCCTACCCCCAATGTGTCC, reverse: GGAGTTGCTGTTGAAGTCGCAG; TNF-α forward: ATGGCCTCCCTCTCATCAGT, reverse: TGGTTTGCTACGACGTGGG; IL-6 forward: AGTGGCTAAGGACCAAGAC, reverse: ATAACGCACTAGGTTTGCCGA; iNOS forward: ATTCACAGCTCATCCGGTACG, reverse: GGATCTTGACCATCAGCTTGC; IL-1β forward: GCACTACAGGCTCCGAGATGAA, reverse: GTCGTTGCTTGGTTCTCCTTGT.
Enzyme-linked immunosorbent assay (ELISA) kits were used to detect the levels of TNF-α, IL-1β, and IL-6 in the brain. Brain tissue was homogenized in 1 ml of phosphate-buffered saline using a tissue homogenizer. […] BV-2 cells were incubated with different treatments and the supernatants were collected and measured.

[2] = Drug concentration in serum and tissues by LC-MS, pharmacokinetics and BBB permeability; format: in vivo, mice; conditions: for concentration in CL brain: contralateral non-ischemic hemisphere; for concentration in CL brain / AUC(0-t) / concentration at 5 min / concentration at 10 min / concentration at 30 min / concentration at 1 h / concentration at 2 h / concentration at 6 h: mean ± SD; for Kp / half-life / AUC(0-t) / concentration at 5 min / concentration at 10 min / concentration at 30 min / concentration at 1 h / concentration at 2 h / concentration at 6 h: C57BL/6, mouse; for Kp / half-life / AUC(0-t): iv; for Kp: mean AUC0–6 h ratio, read-out: Kp (brain-serum ratio, AUCbrain/AUCserum); for half-life: read-out: t1/2 (elimination half-life) (converted); for AUC(0-t): read-out: AUC0–6 h; for concentration at 5 min / concentration at 10 min / concentration at 30 min / concentration at 1 h / concentration at 2 h / concentration at 6 h: intravenous
Method: The mice were intravenously injected with 15 mg/kg TJ-5 at the time of reperfusion 1 h after MCAO or Sham. The mice were then anesthetized at 5 min, 10 min, 30 min, 1 h, and 2 h, or 6 h post-dosing. Blood was collected to prepare serum samples, and the ipsilateral ischemic hemisphere (IL brain), contralateral non-ischemic hemisphere (CL brain), heart, and liver samples were obtained after transcardial perfusion with 0.9% saline. Liquid chromatography-mass spectrometry (LC-MS) was performed to determine the concentration of TJ-5 in the samples. The time-concentration curve, area under the curve (AUC), and pharmacokinetic (PK) parameters of TJ-5 were analyzed using the PKslover 2.0 PK software ([Zhang et al., 2010]). BBB permeability was evaluated using the brain-to-serum partition coefficient (Kp), which was calculated as AUCbrain/AUCserum.

[3] = tested on: OGD/R-stimulated BV-2 cells; assay: OGD/R-stimulated BV-2 cells: TNF-α/IL-6 ELISA; format: cell-based
Method: Enzyme-linked immunosorbent assay (ELISA) kits were used to detect the levels of TNF-α, IL-1β, and IL-6 in the brain. Brain tissue was homogenized in 1 ml of phosphate-buffered saline using a tissue homogenizer. Then, the homogenates were centrifuged at 14,000 g for 10 min at 4 °C. The supernatant was immediately transferred for measurement following the manufacturer’s instructions. BV-2 cells were incubated with different treatments and the supernatants were collected and measured.

BV-2 cells = assay: CCK-8 cell viability assay, BV-2; format: cell-based; conditions: concentrations below 20 μM, 24 h
Method: BV-2 and SH-SY5Y cells were seeded in a 96-well plate at a density of 1 × 10^4 cells/well. Twenty-4 hours later, different concentrations of TJ-5 (0, 1, 5, 10, 20, and 30 μM) were added and co-cultured with cells for 24 h. Cell Counting Kit-8 (CCK8, Sigma, Shanghai, China) was used to measure cell viability. Experiments were conducted according to the manufacturer’s instructions. After incubation at 37°C for 2 h, absorbance was measured at 450 nm using a microplate reader (Synergy 2, BioTek Instruments, United States).

O=C(CCN1CCN(Cc2ccccc2)CC1)Nc1nc(-c2ccccc2)cs1 [TJ-5]
apoptosis of OGD/R-induced SH-SY5Y cells [1]: significantly reduced apoptosis
iNOS (with TNF-α, IL-6, IL-1β) mRNA expression levels in the brain (CIRI mice; RT-qPCR): downregulated
expression of TNF-α, IL-1β, and IL-6 in the brain (mRNA and protein) (CIRI mice; RT-qPCR and ELISA): reduced
concentration in CL brain ([2]; 15 mg/kg i.v. at reperfusion 1 h after MCAO, 5 min): 5877.53 ± 989.32 ng/g
concentration in CL brain ([2]; 15 mg/kg i.v. at reperfusion 1 h after MCAO, 10 min): 5364.30 ± 749.83 ng/g
concentration in CL brain ([2]; 15 mg/kg i.v. at reperfusion 1 h after MCAO, 30 min): 2480.87 ± 985.41 ng/g
concentration in CL brain ([2]; 15 mg/kg i.v. at reperfusion 1 h after MCAO, 1 h): 1662.40 ± 117.03 ng/g
concentration in CL brain ([2]; 15 mg/kg i.v. at reperfusion 1 h after MCAO, 2 h): 347.65 ± 55.25 ng/g
concentration in CL brain ([2]; 15 mg/kg i.v. at reperfusion 1 h after MCAO, 6 h): 10.43 ± 5.69 ng/g
BBB permeability ([2]; 15 mg/kg i.v., brain vs serum concentrations): good BBB permeability
Kp ([2]; CL brain (contralateral non-ischemic hemisphere) / serum, 15 mg/kg i.v., CL brain): 5.21
Kp ([2]; IL brain (ipsilateral ischemic hemisphere) / serum, 15 mg/kg i.v., IL brain): 5.58
Kp ([2]; brain (Sham) / serum, 15 mg/kg i.v., Sham brain): 4.98
half-life ([2]; contralateral non-ischemic hemisphere (CL brain), 15 mg/kg i.v., CL brain): 24.6 min
AUC(0-t) ([2]; contralateral non-ischemic hemisphere (CL brain), 15 mg/kg i.v., CL brain, tissue density assumed 1 g/ml): 4790 ± 353 ng·h/mL
concentration at 5 min ([2]; 15 mg/kg i.v., Sham brain, 5 min, read-out: concentration in Sham brain): 6230 ± 436 ng/g
concentration at 10 min ([2]; 15 mg/kg i.v., Sham brain, 10 min, read-out: concentration in Sham brain): 4900 ± 53.9 ng/g
concentration at 30 min ([2]; 15 mg/kg i.v., Sham brain, 30 min, read-out: concentration in Sham brain): 2730 ± 256 ng/g
concentration at 1 h ([2]; 15 mg/kg i.v., Sham brain, 1 h, read-out: concentration in Sham brain): 1580 ± 469 ng/g
concentration at 2 h ([2]; 15 mg/kg i.v., Sham brain, 2 h, read-out: concentration in Sham brain): 268 ± 6.25 ng/g
concentration at 6 h ([2]; 15 mg/kg i.v., Sham brain, 6 h, read-out: concentration in Sham brain): 18.7 ± 11 ng/g
concentration at 5 min ([2]; 15 mg/kg i.v., heart, 5 min, read-out: concentration in heart): 5910 ± 825 ng/g
concentration at 10 min ([2]; 15 mg/kg i.v., heart, 10 min, read-out: concentration in heart): 4590 ± 352 ng/g
concentration at 30 min ([2]; 15 mg/kg i.v., heart, 30 min, read-out: concentration in heart): 4730 ± 2060 ng/g
concentration at 1 h ([2]; 15 mg/kg i.v., heart, 1 h, read-out: concentration in heart): 1660 ± 335 ng/g
concentration at 2 h ([2]; 15 mg/kg i.v., heart, 2 h, read-out: concentration in heart): 684 ± 199 ng/g
concentration at 6 h ([2]; 15 mg/kg i.v., heart, 6 h, read-out: concentration in heart): 51.6 ± 11.9 ng/g
concentration at 5 min ([2]; 15 mg/kg i.v., liver, 5 min, read-out: concentration in liver): 7160 ± 594 ng/g
concentration at 10 min ([2]; 15 mg/kg i.v., liver, 10 min, read-out: concentration in liver): 5890 ± 528 ng/g
concentration at 30 min ([2]; 15 mg/kg i.v., liver, 30 min, read-out: concentration in liver): 4710 ± 1130 ng/g
concentration at 1 h ([2]; 15 mg/kg i.v., liver, 1 h, read-out: concentration in liver): 2960 ± 1030 ng/g
concentration at 2 h ([2]; 15 mg/kg i.v., liver, 2 h, read-out: concentration in liver): 750 ± 249 ng/g
concentration at 6 h ([2]; 15 mg/kg i.v., liver, 6 h, read-out: concentration in liver): 170 ± 36.1 ng/g
concentration at 5 min ([2]; 15 mg/kg i.v., serum, 5 min, read-out: concentration in serum): 1190 ± 209 ng/mL
concentration at 10 min ([2]; 15 mg/kg i.v., serum, 10 min, read-out: concentration in serum): 980 ± 203 ng/mL
concentration at 30 min ([2]; 15 mg/kg i.v., serum, 30 min, read-out: concentration in serum): 472 ± 151 ng/mL
concentration at 1 h ([2]; 15 mg/kg i.v., serum, 1 h, read-out: concentration in serum): 285 ± 29.1 ng/mL
concentration at 2 h ([2]; 15 mg/kg i.v., serum, 2 h, read-out: concentration in serum): 79.6 ± 26.9 ng/mL
concentration at 6 h ([2]; 15 mg/kg i.v., serum, 6 h, read-out: concentration in serum): 2.08 ± 1.12 ng/mL
concentration at 5 min ([2]; ipsilateral ischemic hemisphere (IL brain), 15 mg/kg i.v. at reperfusion 1 h after MCAO, ipsilateral ischemic hemisphere, 5 min, read-out: concentration in IL brain): 6650 ± 591 ng/g
concentration at 10 min ([2]; ipsilateral ischemic hemisphere (IL brain), 15 mg/kg i.v. at reperfusion 1 h after MCAO, ipsilateral ischemic hemisphere, 10 min, read-out: concentration in IL brain): 5799 ± 29.8 ng/g
concentration at 30 min ([2]; ipsilateral ischemic hemisphere (IL brain), 15 mg/kg i.v. at reperfusion 1 h after MCAO, ipsilateral ischemic hemisphere, 30 min, read-out: concentration in IL brain): 2890 ± 611 ng/g
concentration at 1 h ([2]; ipsilateral ischemic hemisphere (IL brain), 15 mg/kg i.v. at reperfusion 1 h after MCAO, ipsilateral ischemic hemisphere, 1 h, read-out: concentration in IL brain): 1750 ± 164 ng/g
concentration at 2 h ([2]; ipsilateral ischemic hemisphere (IL brain), 15 mg/kg i.v. at reperfusion 1 h after MCAO, ipsilateral ischemic hemisphere, 2 h, read-out: concentration in IL brain): 327 ± 57.2 ng/g
concentration at 6 h ([2]; ipsilateral ischemic hemisphere (IL brain), 15 mg/kg i.v. at reperfusion 1 h after MCAO, ipsilateral ischemic hemisphere, 6 h, read-out: concentration in IL brain): 11.7 ± 6.43 ng/g
half-life ([2]; ipsilateral ischemic hemisphere (IL brain), 15 mg/kg i.v., IL brain): 24.6 min
AUC(0-t) ([2]; ipsilateral ischemic hemisphere (IL brain), 15 mg/kg i.v., IL brain, tissue density assumed 1 g/ml): 5140 ± 239 ng·h/mL
half-life ([2]; 15 mg/kg i.v., Sham brain): 39 min
AUC(0-t) ([2]; 15 mg/kg i.v., Sham brain, tissue density assumed 1 g/ml): 4580 ± 276 ng·h/mL
half-life ([2]; 15 mg/kg i.v., heart): 40.2 min
AUC(0-t) ([2]; 15 mg/kg i.v., heart, tissue density assumed 1 g/ml): 6480 ± 769 ng·h/mL
half-life ([2]; 15 mg/kg i.v., liver): 42 min
AUC(0-t) ([2]; 15 mg/kg i.v., liver, tissue density assumed 1 g/ml): 8240 ± 852 ng·h/mL
AUC(0-t) ([2]; 15 mg/kg i.v., serum): 919 ± 82.2 ng·h/mL
half-life ([2]; 15 mg/kg i.v., serum): 22.8 min
time effective concentration is maintained ([2]; single intravenous injection of 15 mg/kg): about 6 h
levels of TNF-α and IL-6 in supernatants [3]: markedly reduced
viability of BV-2 cells (BV-2 cells): did not affect the viability
